Assay results: patent publication US20080176787A1, “Parathyroid hormone analogues and methods of use” (priority 2005, published 2008)
Read-outs that look alike come from different tables or passages of the source. Positions of bridges follow the written chain, without caps; N, C: chain ends. Residues, ends and D or L forms follow the SMILES beside them.

Experiment: Phase II pharmacokinetic evaluation of subcutaneous Ostabolin-C (Baseline and Week 12 subset)
Type: in vivo, human
Conditions: human, blood; for Cmax: read-out: Cmax
Method: The objective of this portion of the study was to evaluate the pharmacokinetics of Ostabolin-C under steady state conditions when given subcutaneously (sc) once a day to post-menopausal female subjects with low bone mineral density.
After Screening procedures and a 2-week placebo run-in phase, subjects were to be dosed once a day for 16 weeks with either Placebo or Ostabolin-C (7.5, 15, 30 or 45 μg). A subset of subjects from all treatment groups had blood collected for measurements of Ostabolin-C in order to determine PK parameters and compare them to prior studies.
The full study duration of the study was 22 weeks, which included a 6-week screening period involving a 2-week placebo run-in and then 16 weeks of treatment. The subset of subjects for this component of the study was treated the same as all other subjects with the exception of the additional blood collections at baseline and Week 12.
All of the values from the Placebo subject except one (Baseline 2 hour time-point) were below the assay level of detection (i.e., 10 pg/ml). With very limited exceptions, all values from Placebo subjects in prior trials have also been below the levels of detection. Thus, this one value was considered to be a laboratory error and PK parameters for this placebo subject were not calculated.
No samples were obtained for Pre-dose at either Baseline or Week 12. In all prior studies, pre-treatment values have been below the levels of detection and 24-hour time points at doses of 40 ug and below have been below the levels of detection. Thus, no observable values were anticipated and for calculating PK the pre-treatment values for Baseline visit were set to zero.
For pre-dose at Week 12, it was also anticipated that the values would be below the levels of detection based on prior studies and that the 24-hour post dose value would verify this. Only two 24-hour time-point values were above the level of detection; i.e. 24 hours post dosing at Baseline for Subject 030-003 and 24 hours post dosing at Week 12 for Subject 030-0004. The values of both of these 24-hour time-points were marginally above the assay level of detection. Also, both of these subjects had values below the levels of detection for both the 4 hour and 6 hour time-points after dosing on the prior day. Thus, these values are most likely artifacts and not real values. No valid 24 hour sample for subject 032-0001 at Week 12 was obtained. […] Thus, for calculating PK parameters, the Pre-dose values for Week 12 were also set to zero.
The pharmacokinetic parameters that were estimated at Baseline and Week 12 are as follows:
AUC values were estimated by a simple summation of trapezoidal areas from each time period. Data from each dose group were summarized using simple statistics on an Excel® spreadsheet; i.e., average (AVG) and Standard Deviation (STD). It should be noted that particularly with the lower doses and associated low blood levels and at late time points, those values just above versus just below the assay limits of detection can have a disproportionate impact to AUC calculations. This adds to that variability of the calculated numbers.

Compound: CC[C@H](C)[C@H](NC(=O)[C@H](CCC(=O)O)NC(=O)[C@H](CO)NC(=O)[C@@H](NC(=O)[C@@H](N)CO)C(C)C)C(=O)N[C@@H](CCC(N)=O)C(=O)N[C@@H](CC(C)C)C(=O)N[C@@H](CCSC)C(=O)N[C@@H](Cc1c[nH]cn1)C(=O)N[C@@H](CC(N)=O)C(=O)N[C@@H](CC(C)C)C(=O)NCC(=O)N[C@@H](CCCCN)C(=O)N[C@@H](Cc1c[nH]cn1)C(=O)N[C@@H](CC(C)C)C(=O)N[C@@H](CC(N)=O)C(=O)N[C@@H](CO)C(=O)N[C@@H](CCSC)C(=O)N[C@@H](CCC(=O)O)C(=O)N[C@@H](CCCN=C(N)N)C(=O)N[C@H](C(=O)N[C@H]1CCC(=O)NCCCC[C@@H](C(=O)N[C@@H](CC(C)C)C(=O)N[C@@H](CC(C)C)C(=O)N[C@@H](CCC(N)=O)C(=O)N[C@@H](CC(=O)O)C(=O)N[C@H](C(N)=O)C(C)C)NC(=O)[C@H](CCCN=C(N)N)NC(=O)[C@H](CC(C)C)NC(=O)[C@H](Cc2c[nH]c3ccccc23)NC1=O)C(C)C [Ostabolin-C, [Leu^27]cyclo[Glu^22-Lys^26]-PTH-(1-31)-NH2] (H-SVSEIQLMHNLGKHLNSMERVEWLRKLLQDV-NH2; lactam 22-26)
- AUC(0-t) (female, sc, 45 ug, Dose 45, mean of Baseline and Week 12 data, read-out: AUC(0-4)): 0.22 ng·h/mL
- AUC(0-t) (female, sc, 45 ug, Dose 45, mean of Baseline and Week 12 data, read-out: AUC(0-24)): 0.296 ng·h/mL
- Cmax (female, sc, 45 ug, Dose 45, mean of Baseline and Week 12 data): 0.12 ng/mL
- Tmax (female, sc, 45 ug, Dose 45, mean of Baseline and Week 12 data, read-out: Tmax): 22.8 min
- AUC(0-t) (female, sc, 45 ug, Week 12, 45 ug, AVG, read-out: AUC(0-4)): 0.0995 ng·h/mL
- AUC(0-t) (female, sc, 45 ug, Week 12, 45 ug, AVG, read-out: AUC(0-24)): 0.171 ng·h/mL
- Cmax (female, sc, 45 ug, Week 12, 45 ug, AVG): 0.0669 ng/mL
- Tmax (female, sc, 45 ug, Week 12, 45 ug, AVG, read-out: Tmax): 15 min
- Tmax (female, sc, all doses, Baseline and Week 12 (STD 0.21 hrs), read-out: Tmax, overall average): 20.4 min
- AUC(0-t) (female, subcutaneous, 7.5 ug, Baseline, 7.5 ug, AVG, read-out: AUC(0-4)): 0.0388 ng·h/mL
- AUC(0-t) (female, subcutaneous, 7.5 ug, Baseline, 7.5 ug, AVG, read-out: AUC(0-24)): 0.0425 ng·h/mL
- Cmax (female, subcutaneous, 7.5 ug, Baseline, 7.5 ug, AVG): 0.0272 ng/mL
- AUC(0-t) (female, subcutaneous, 15 ug, Baseline, 15 ug, AVG, read-out: AUC(0-4)): 0.0742 ng·h/mL
- AUC(0-t) (female, subcutaneous, 15 ug, Baseline, 15 ug, AVG, read-out: AUC(0-24)): 0.0742 ng·h/mL
- Cmax (female, subcutaneous, 15 ug, Baseline, 15 ug, AVG): 0.0449 ng/mL
- Tmax (female, subcutaneous, 15 μg, Dose 15, mean of Baseline and Week 12 data, read-out: Tmax): 19.8 min
- Tmax (female, subcutaneous, 15 ug, Week 12, 15 ug, AVG, read-out: Tmax): 19.8 min
- AUC(0-t) (female, subcutaneous, 45 ug, Baseline, 45 ug, AVG, read-out: AUC(0-4)): 0.341 ng·h/mL
- AUC(0-t) (female, subcutaneous, 45 ug, Baseline, 45 ug, AVG, read-out: AUC(0-24)): 0.42 ng·h/mL
- Cmax (female, subcutaneous, 45 ug, Baseline, 45 ug, AVG): 0.174 ng/mL
- Cmax (subcutaneous, 7.5 ug, Baseline, 7.5 ug, individual subjects): 0.0207 ng/mL
- Cmax (subcutaneous, 7.5 ug, Week 12, 7.5 ug, individual subjects): 0.021 ng/mL
- Tmax (subcutaneous, 7.5 ug, Week 12, 7.5 ug, individual subjects, read-out: Tmax): 15 min
- AUC(0-t) (subcutaneous, 15 ug, Baseline, 15 ug, individual subjects, read-out: AUC(0-4)): 0.066 ng·h/mL
- AUC(0-t) (subcutaneous, 15 ug, Baseline, 15 ug, individual subjects, read-out: AUC(0-24)): 0.066 ng·h/mL
- Cmax (subcutaneous, 15 ug, Baseline, 15 ug, individual subjects): 0.0306 ng/mL
- Tmax (subcutaneous, 15 ug, Baseline, 15 ug, individual subjects, read-out: Tmax): 30 min
- Tmax (subcutaneous, 15 ug, Week 12, 15 ug, individual subjects, read-out: Tmax): 15 min
- AUC(0-t) (subcutaneous, 30 ug, Baseline, 30 ug, individual subject, read-out: AUC(0-4)): 0.104 ng·h/mL
- AUC(0-t) (subcutaneous, 30 ug, Baseline, 30 ug, individual subject, read-out: AUC(0-24)): 0.104 ng·h/mL
- Cmax (subcutaneous, 30 ug, Baseline, 30 ug, individual subject): 0.0639 ng/mL
- Tmax (subcutaneous, 30 ug, Baseline, 30 ug, individual subject, read-out: Tmax): 30 min
- AUC(0-t) (subcutaneous, 30 ug, Week 12, 30 ug, individual subjects, read-out: AUC(0-24)): 0.154 ng·h/mL
- Cmax (subcutaneous, 30 ug, Week 12, 30 ug, individual subjects): 0.0762 ng/mL
- Tmax (subcutaneous, 30 ug, Week 12, 30 ug, individual subjects, read-out: Tmax): 15 min
- AUC(0-t) (subcutaneous, 45 ug, Baseline, 45 ug, individual subjects, read-out: AUC(0-4)): 0.337 ng·h/mL
- AUC(0-t) (subcutaneous, 45 ug, Baseline, 45 ug, individual subjects, read-out: AUC(0-24)): 0.47 ng·h/mL
- Tmax (subcutaneous, 45 ug, Baseline, 45 ug, individual subjects, read-out: Tmax): 30 min
- AUC(0-t) (subcutaneous, 45 ug, Week 12, 45 ug, individual subject, read-out: AUC(0-4)): 0.128 ng·h/mL
- AUC(0-t) (subcutaneous, 45 ug, Week 12, 45 ug, individual subject, read-out: AUC(0-24)): 0.128 ng·h/mL
- Cmax (subcutaneous, 45 ug, Week 12, 45 ug, individual subject): 0.0871 ng/mL
- Tmax (subcutaneous, 45 ug, Week 12, 45 ug, individual subject, read-out: Tmax): 15 min
